# Legend:
# estrone sulfatase [1] = target: T1, estrone sulfatase (Rattus norvegicus, UniProt P15589); test: Estrone sulfatase activity in the uterus of treated rats; format: in vivo
# T1 construct: uteri were thawed, weighed and homogenized; from tissue; host or cells: uterus of animals dosed orally (ex vivo homogenate supernatant)
# T1 sequence (P15589 20-577): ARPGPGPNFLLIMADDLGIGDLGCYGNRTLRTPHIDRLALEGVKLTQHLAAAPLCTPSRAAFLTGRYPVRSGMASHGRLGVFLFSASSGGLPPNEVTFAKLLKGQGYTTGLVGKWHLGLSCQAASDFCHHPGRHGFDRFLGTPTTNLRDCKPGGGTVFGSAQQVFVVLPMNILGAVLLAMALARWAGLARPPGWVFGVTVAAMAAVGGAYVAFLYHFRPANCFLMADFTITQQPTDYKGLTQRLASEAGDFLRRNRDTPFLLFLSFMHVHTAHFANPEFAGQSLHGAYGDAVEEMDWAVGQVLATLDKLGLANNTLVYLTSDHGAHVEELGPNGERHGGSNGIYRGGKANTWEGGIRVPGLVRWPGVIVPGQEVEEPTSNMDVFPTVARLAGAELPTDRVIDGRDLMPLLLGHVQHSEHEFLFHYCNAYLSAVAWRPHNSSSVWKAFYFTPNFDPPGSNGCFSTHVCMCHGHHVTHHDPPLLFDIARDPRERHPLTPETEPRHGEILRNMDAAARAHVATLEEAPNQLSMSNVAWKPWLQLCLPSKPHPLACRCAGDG
# Procedure: (§1) In this study, a last administration was performed 24 hours before the necropsy for E1S and E2 serum levels assays. The uteri were removed, freed of adjacent tissue, wet weighed and immediately deep frozen until the determination of sulfatase activity.
# Estrone sulfatase activity was measured according to the method described by Purohit et al., with slight modifications. Briefly, uteri were thawed, weighed and homogenized. Aliquots of the supernatant were treated with dextran-coated charcoal and assayed for sulfatase. E1S activity was assessed after 30 min of incubation with 5 nM of ^3H-E1S and 20 μM of unlabelled E1S as substrate. Radioactivity was measured by LSC.
# Estrone sulfatase activity was expressed as pmol/h/mg protein and reported as percentage of inhibition versus E1S.
# steroid sulfatase = target: T2, steroid sulfatase (Homo sapiens, UniProt P08842); test: Xenograft steroid sulfatase activity; format: in vivo, mouse; settings: oral 0.1 mg/kg/day for 6 weeks
# T2 construct: from tissue; host or cells: MCF-7 xenograft tumour removed from athymic nude mice
# T2 sequence (P08842 22-583): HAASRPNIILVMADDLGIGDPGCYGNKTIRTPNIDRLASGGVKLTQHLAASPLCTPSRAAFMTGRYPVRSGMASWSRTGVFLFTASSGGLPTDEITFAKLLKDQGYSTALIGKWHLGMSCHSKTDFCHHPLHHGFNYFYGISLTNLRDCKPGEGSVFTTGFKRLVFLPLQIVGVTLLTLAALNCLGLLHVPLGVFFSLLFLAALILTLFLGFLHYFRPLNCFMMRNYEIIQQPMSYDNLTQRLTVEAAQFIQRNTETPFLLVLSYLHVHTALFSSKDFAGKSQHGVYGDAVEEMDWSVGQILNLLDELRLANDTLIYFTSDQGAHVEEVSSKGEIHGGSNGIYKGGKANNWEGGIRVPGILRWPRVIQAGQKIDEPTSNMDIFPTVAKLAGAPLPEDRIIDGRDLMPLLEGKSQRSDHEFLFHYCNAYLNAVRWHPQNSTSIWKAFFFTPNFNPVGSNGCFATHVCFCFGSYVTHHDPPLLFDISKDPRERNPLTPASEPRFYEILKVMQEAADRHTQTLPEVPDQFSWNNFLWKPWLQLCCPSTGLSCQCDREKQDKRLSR
# Procedure: (§2) MCF-7 cells, derived from human breast adenocarcinoma, were injected subcutaneously in ovariectomized athymic nude mice supplemented with estrone sulfate (pellets 0.5 mg/90 day release). Xenograft volumes were determined once weekly. When tumor volumes reached a significant increase, 6,6,7 COUMATE and Ex 55 were orally administered at 0.1 mg/kg/day for 6 weeks.
# (§3) Xenografts were measured, removed, weighed, and deep frozen until the determination of steroid sulfatase activity.
# estrone sulfatase [2] = target: T3, estrone sulfatase (Homo sapiens, UniProt P08842); test: Estrone sulfatase whole-cell assay on MCF-7 cells; format: cell-based; design: Whole-cell assays were performed as originally described by Duncan et al. (Cancer Res., 1993, 53: 298-303) on intact MCF-7 cell monolayers; endogenous in cells; host or cells: MCF-7 (human breast adenocarcinoma), intact monolayers; settings: 20 h treatment, 3H-E1S, read-out: IC50 (nM) ± S.E.M., inhibition of estrone sulfatase
# T3 sequence (P08842 22-583): T2 sequence (P08842 22-583)
# Procedure: Two in vitro models on whole cells were used. […] Moreover, these cells were used in the in vivo model of hormono-dependent induced xenografts.
# Estrone Sulfatase Assay on Cells
# Whole-cell assays were performed as originally described by Duncan et al. (Cancer Res., 1993, 53: 298-303) on intact MCF-7 cell monolayers. Assays were carried out with cells in logarithmic growth phase, on 96-well (JEG-3) or 24-well (MCF-7) microplates. Twenty-four hours (JEG-3) or 72 h (MCF-7) before studies, cells were seeded in decomplemented fetal calf serum (dFCS) supplemented medium. Then, the seeding medium was removed and the cells were rinsed with PBS to eliminate any trace of dFCS. Then, ^3H-E1S was added, followed by test compounds ranging from 10^−12 M to 10^−5 M. After 4 h (JEG-3) or 20 h (MCF-7) of treatment, the medium was transferred into either 96-deep-well microplates (JEG-3) or plastic tubes (MCF-7) and centrifuged at 200×g for 10 min to pellet cells before toluene extraction. A fraction of medium was used for toluene extraction in order to separate conjugated substrate and non-conjugated products. The radioactivity in the toluene phase was measured by liquid scintillation counting (LSC). Finally, estrone sulfatase activity was expressed in pmoles of ^3H-E1+^3H-E2 formed per 4 or 20 hours and per μg DNA and estrone sulfatase inhibition in percentage of control activity without inhibitor.
# MCF-7 cells = test: Hormono-dependent induced MCF-7 xenografts: volume and weight; format: in vivo, mice; settings: oral 0.1 mg/kg/day for 6 weeks
# Procedure: as §2, §3
# [3] = Serum estrogen levels (E1S and E2) in treated rats; format: in vivo, rat; settings: 24 h after last administration
# Procedure: as §1
# E1S and E2 levels were determined according to the supplier's standard method (DSL, Webster, Tex., USA).
# [4] = MCF-7 xenografts, nude mice with E1S pellet
compound,measurement,setting,value
"NS(=O)(=O)Oc1ccc2c(c1)S(=O)(=O)C(CC1CCCCCC1)=C2 [Ex 55, Sulfamic acid, 2-cycloheptylmethyl-benzothiophene-6-yl-1,1-dioxide ester]","Estrone sulfatase activity in the uterus, percentage of inhibition versus E1S",estrone sulfatase [1]; 0.03 mg/kg/day p.o.,19%
same,"Estrone sulfatase activity in the uterus, percentage of inhibition versus E1S",estrone sulfatase [1]; 0.1 mg/kg/day p.o.,64%
same,"Estrone sulfatase activity in the uterus, percentage of inhibition versus E1S",estrone sulfatase [1]; 0.3 mg/kg/day p.o.,96%
same,"Estrone sulfatase activity in the uterus, percentage of inhibition versus E1S",estrone sulfatase [1]; 1 mg/kg/day p.o.,97%
same,melting point,,135 °C
same,Xenograft steroid sulfatase activity,steroid sulfatase; MCF-7 xenografts,263 ± 17 pmol/h/mg protein
same,inhibition at 0.1 mg/kg/day,steroid sulfatase; read-out: inhibition of intratumoral steroid sulfatase activity,84%
same,IC50,estrone sulfatase [2],0.05 ± 0.01 nM
same,Xenograft volume after 6 week treatment,MCF-7 cells; [4],1488 ± 233 mm^3
same,Xenograft weight after 6 week treatment,MCF-7 cells; [4],877 ± 185 mg
same,inhibition of the E1S induced stimulation (xenograft volume),MCF-7 cells,18%
same,inhibition of xenograft weight,MCF-7 cells,35%
same,E1S levels (serum),[3]; 0.03 mg/kg/day p.o.,17 ± 2.5 ng/mL
same,E2 levels (serum),[3]; 0.03 mg/kg/day p.o.,31 ± 2.8 pg/mL
same,E1S levels (serum),[3]; 0.1 mg/kg/day p.o.,21 ± 2.4 ng/mL
same,E2 levels (serum),[3]; 0.1 mg/kg/day p.o.,28 ± 1.3 pg/mL
same,E1S levels (serum),[3]; 0.3 mg/kg/day p.o.,69 ± 5.9 ng/mL
same,E2 levels (serum),[3]; 0.3 mg/kg/day p.o.,22 ± 1.2 pg/mL
same,E1S levels (serum),[3]; 1 mg/kg/day p.o.,83 ± 2.5 ng/mL
same,E2 levels (serum),[3]; 1 mg/kg/day p.o.,15 ± 0.9 pg/mL

# From patent US7476691B2, “Sulfamate benzothiophene derivatives as steroid sulfatase inhibitors” (Laboratoire Theramex, priority 2003, dated 2009)
